From patent publication US20210238225A1, “PEPTIDOMIMETIC INHIBITORS OF THE PEPTIDYL-PROLYL CIS/TRANS ISOMERASE (PIN1)” (DANA-FARBER CANCER INSTITUTE, INC., priority 2018, published 2021)
pKi: −log10 of the molar value. “Also recorded” adds a separate entry of the source. Non-standard residues stand in square brackets, D forms with d. Residues, ends and D or L forms follow the SMILES beside them. *: point of attachment. 2Nal = N[C@@H](Cc1ccc2ccccc2c1)C(=O)O; NMeF = CN[C@@H](Cc1ccccc1)C(=O)O; Cit = NC(=O)NCCC[C@H](N)C(=O)O; Pip = O=C(O)[C@@H]1CCCCN1; ClAc = O=C(CCl)*

Columns and labels:
[1] = molecular target: T1, Pin1 (Homo sapiens, UniProt Q13526); experiment: X-ray crystallography; parameters: A construct of full-length human Pin1 in a pET28 vector; made in house; host or cells: E. coli BL21 (DE3)
T1 sequence (Q13526 whole entry): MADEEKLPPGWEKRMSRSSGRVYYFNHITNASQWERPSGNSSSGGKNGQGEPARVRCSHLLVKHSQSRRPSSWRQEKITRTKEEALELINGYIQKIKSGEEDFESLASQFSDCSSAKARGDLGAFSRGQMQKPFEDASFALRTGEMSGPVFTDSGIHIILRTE
Protocol: A construct of full-length human Pin1 in a pET28 vector was overexpressed in E. coli BL21 (DE3) in LB medium in the presence of […] of kanamycin. Cells were grown at 37° C. to an OD of 0.8, cooled to 17° C., induced with 500 μM isopropyl-1-thio-D-galactopyranoside, incubated overnight at 17° C., collected by centrifugation, and stored at −80° C. Cell pellets were sonicated in buffer A (50 mM hepes 7.5, 300 mM NaCl, 10% glycerol, 10 mM Imidazole, and 3 mM 2-mercaptoethanol (BME) and the resulting lysate was centrifuged at 30,000×g for 40 min. Ni-NTA beads (Qiagen) were mixed with lysate supernatant for 30 min and washed with buffer A. Beads were transferred to an FPLC-compatible column and the bound protein was washed with 15% buffer B (50 mM hepes 7.5, 300 mM NaCl, 10% glycerol, 300 mM imidazole, and 3 mM BME) and eluted with 100% buffer B. Thrombin was added to the eluted protein and incubated at 4° C. overnight. The sample was concentrated and passed through a Superdex® 200 10/300 column (GE healthcare) in a buffer containing 20 mM hepes 7.5, 150 mMNaCl, 5% glycerol, 3 mM DTT, and 1 mM tris(2-carboxyethyl)phosphine (TCEP). Fractions were pooled, concentrated to approximately 37 mg/ml and frozen at −80° C.
Apo protein at a final concentration of 1 mM was crystallized by sitting-drop (200 nL+200 nL) vapor diffusion at 20° C. in the following crystallization buffer: 3 M (NH4)2SO4, 100 mM BisTris-pH 7.0, 1% PEG400, and 1 mM DTT. A volume of 200 nL of 1 mM compound 2b-6 was added directly to crystals for soaking at 20° C. for 16 hrs. Crystals were transferred briefly into crystallization buffer containing 25% glycerol prior to flash-freezing in liquid nitrogen.
Diffraction data from complex crystals were collected at beamline 24ID-E of the NE-CAT at the Advanced Photon Source (Argonne National Laboratory). Data sets were integrated and scaled using XDS (Kabsch, Acta Crystallogr. D Biol. Crystallogr. D66: 133-144 (2010)). […]

[2] = molecular target: Pin1 Cys 113 (Homo sapiens, UniProt Q13526); experiment: Covalent labeling (intact MS); format: binding; settings: for Covalent? (In tact MS), % labeling: purified Pin1 with 5 μM inhibitor, 0-3 hr
Chain of Pin1 Cys 113 (Q13526 whole entry): as above
Protocol: 5 μg of purified Pin1 protein in 50 μL of 20 mM HEPES pH 7.5 and 75 mM NaCl was incubated with 5 μM of respective Pin1 inhibitors for 0-3 hr. A Shimadzu XR HPLC was used to inject the entire sample onto a self-packed reverse-phase column (1/32 in outer diameter×500 μm inner diameter, 5 cm of POROS 50R2 resin). After desalting, protein was eluted with an HPLC gradient (0%-100% B in 4 min, A=0.2 M acetic acid in water, B=0.2 M acetic acid in acetonitrile, flow rate=10 μl/min) into a LTQ XL mass spectrometer (Thermo Fisher Scientific, San Jose, Calif., USA). LTQ XL MS spectra were acquired in centroid mode using the electron multipliers for ion detection. Mass spectra were deconvoluted using MagTran1.03b2 software (Zhang and Marshall, J. Am. Soc. Mass Spectrom. 9:225-233 (1998)).

[3] = molecular target: T1, Pin1; experiment: Lysate target engagement (pull down with biotinylated probes; competition assay); format: binding; parameters: endogenous in cells; host or cells: MDA-MB-231; settings: for Lysate Target Engagement?: TNBC-MDA-MB-231 lysate, biotin/dtb probes: pull down, others: competition, concentration under E5; for Lysate Target Engagement? concentration stated for the engagement or pull down: read with the E4 line of the same compound (complete, partial, probe pull down)
Outline: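 MDA-MB-231 (TNBC) lysates, 500 μg protein, incubated 1 h at 4 °C with compound, then streptavidin pull-down 2 h at 4 °C; western blot read-out. Competition format: lysate pre-incubated overnight at 4 °C with competitor, then 1 μM desthiobiotin probe for 1 h before pull-down.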

[4] = molecular target: T2, Pin1 (GST-Pin1) (Homo sapiens, UniProt Q13526); experiment: Chymotrypsin-coupled PPIase assay, inhibition of isomerase activity; format: biochemical; settings: 12 hours pre-incubation at 4° C.; Cheng-Prusoff equation; read-out: Ki, μM (PPlase Assay)
T2 sequence (Q13526 whole entry): as above
Protocol: Inhibition of Pin1 isomerase activity was determined using the chymotrypsin-coupled PPIase assay, using GST-Pin1 and Suc-Ala-pSer-Pro-Phe-pNA peptide substrate ([…]), as described previously (Yaffe et al., Science 275:1957-1960 (1997)). GST-Pin1 was pre-incubated with the indicated concentrations of compound for 12 hours at 4° C. in buffer containing 35 mM HEPES (pH 7.8), 0.2 mM DTT, and 0.1 mg/mL bovine serum albumin (BSA). Immediately before the assay was started, chymotrypsin (final concentration 6 mg/mL), followed by the peptide substrate (Suc-Ala-pSer-Pro-Phe-pNA peptide substrate, final concentration […]) was added. The Ki value obtained from the PPIase assay was derived from the Cheng-Prusoff equation, Ki=IC50/(1+S/Km), where Km is the Michaelis constant for the used substrate, S is the initial concentration of the substrate in the assay, and IC50 is the […] inhibitory concentration of the inhibitor.

[5] = molecular target: T1, Pin1; experiment: Cellular target engagement, live cell biotin competition assay in TNBC MDA-MB-231 cells; format: cell-based; parameters: endogenous in cells; host or cells: MDA-MB-231
Outline: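 Cells treated 5 h with compound, then lysed; lysates incubated with 1 μM biotin probe compound 1 h at 4° C and pulled down on streptavidin agarose 2 h at 4° C. Bound Pin1 versus input detected by western blot.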

[6] = tested on: PATU-8988T cells; experiment: Time-dependent antiproliferative activity (CellTiter-Glo); format: cell-based; settings: Day 0, 2, 4, 6 and 8
Protocol: PATU-8988T cells were plated at a density of 100 cells per well in 100 μL media in a 96-well white clear bottom plate (Corning cat #3903), with at least one plate per time point (Day 0, 2, 4, 6 and 8). Cells were treated the day after plating with 1 μL of DMSO or Compound 18 to give the indicated concentrations, and were then incubated at 37° C. 5% CO2. Every 48 hours, the media was aspirated and replaced with fresh media containing fresh compound or DMSO. When the indicated time points had been reached, cell viability was evaluated using the CellTiter-Glo Luminescent Cell Viability Assay (Promega cat #G7570) according to the manufacturer's standards, measuring luminescence using an Envision plate-reader. The Day 0 time point plates were read the day after plating, prior to compound treatment. N=3 biological replicates were used for each treatment condition.

[7] = tested on: phosphoRb (S780), phosphoRb (S801/811), β-Catenin, cJun, cMyc and phosphoH3 (S10); experiment: Downstream signaling, western blot in TNBC MDA-MB-231 cells; format: cell-based; settings: 10 μM, 1, 2, 4, 6 and 8 hours
Protocol: TNBC MDA-MB-231 cells were plated in 6-well plates at a density of 100,000 cells per well in 2 mL media. The day after plating, cells were treated with the indicated concentration of compound 18, and harvested at 1, 2, 4, 6, and 8 hours. To harvest, the cells were washed with PBS, and then lysed in RIPA Lysis Buffer (Thermo Scientific™, cat. #89900, with protease inhibitors (Roche). Lysates were clarified by centrifugation (14,000 rpm for 15 min at 4° C.), and protein concentrations were determined by BCA. The samples were normalized and prepared in 4× LDS+10% β-mercaptoethanol, and were then boiled at 95° C. for 5 minutes. Lysates were probed for specified proteins by western blotting using the Bolt system (Life Technologies™).

[8] = molecular target: T2, Pin1 (GST-Pin1); experiment: Fluorescence polarization (FP) assay, binding to Pin1

N=C(N)NCCC[C@H](NC(=O)[C@H](Cc1ccc2ccccc2c1)NC(=O)[C@@H]1CCCCN1C(=O)[C@H](CCC(=O)O)NC(=O)CCl)C(N)=O [Compound 2b-6, (S)-5-((S)-2-(((S)-1-(((S)-1-Amino-5-guanidino-1-oxopentan-2-yl)amino)-3-(naphthalen-2-yl)-1-oxopropan-2-yl)carbamoyl)piperidin-1-yl)-4-(2-chloroacetamido)-5-oxopentanoic acid] (ClAc-E[Pip][2Nal]R-NH2)
X-Ray Crystal Structure? [1]: Yes
binding mode in x-ray co-crystal structure (FIG. 4A) ([1]; 1.8 A resolution, crystal soaking): covalently bound to Pin1; also recorded: covalently bound to Cys113 in the PPIase active site
Pin1 covalent labeling time course (FIG. 3A) ([2]; over the course of 60 minutes): rapidly labeled Pin1 Cysl 13
Covalent? (In tact MS), % labeling [2]: Yes (100%
Lysate Target Engagement? [3]: No
Ki [4]: 0.04 µM

NC(=O)NCCC[C@H](NC(=O)[C@H](Cc1ccc2ccccc2c1)NC(=O)[C@@H]1CCCCN1C(=O)[C@H](CCC(=O)O)NC(=O)CCl)C(N)=O [Compound 2b-13, (S)-5-((S)-2-(((S)-1-(((S)-1-Amino-1-oxo-5-ureidopentan-2-yl)amino)-3-(naphthalen-2-yl)-1-oxopropan-2-yl)carbamoyl)piperidin-1-yl)-4-(2-chloroacetamido)-5-oxopentanoic acid] (ClAc-E[Pip][2Nal][Cit]-NH2)
Lysate Target Engagement? [3]: Yes-Complete
Lysate Target Engagement? concentration stated for the engagement or pull down [3]: at 10 μM
Ki [4]: 0.021 µM

CCOC(=O)[C@H](CCCNC(N)=O)NC(=O)[C@H](Cc1c[nH]c2ccccc12)NC(=O)[C@@H]1CCCCN1C(=O)[C@H](Cc1ccccc1)N(C)C(=O)CCl [Compound 18, Ethyl (S)-2-((S)-2-((S)-1-(N-(2-chloroacetyl)-N-methyl-L-phenylalanyl)piperidine-2-carboxamido)-3-(1H-indol-3-yl)propanamido)-5-ureidopentanoate] (ClAc-[NMeF][Pip]W[Cit]-OEt)
concentration at which cellular Pin1 is fully engaged (FIG. 7B) ([5]; TNBC MDA-MB-231 cells, 5 hours): ≤ 5 µM
Cellular Target Engagement? ([5]; TNBC MDA-MB-231 cells, 5 hours treatment, concentration under E7): Yes-Complete
Cellular Target Engagement? concentration stated for complete engagement ([5]; TNBC MDA-MB-231 cells, read with the E6 line): at 5 μM
live cell competition with compound 2-32 (FIG. 7B legend) ([5]; preincubation of live TNBC-MDA-MB-231 cells with increasing concentrations): outcompetes compound 2-32 for Pin1 binding
covalent labeling of Pin1 ([2]; 30-minute room temperature incubation at 1:1 Pin1:compound): 100%
Covalent? (In tact MS), % labeling [2]: Yes (100%
cell viability (FIG. 10) [6]: dose-dependent and time-dependent defects in cell viability
downstream signaling changes (FIG. 9) [7]: a decrease in phosphoRb, β-Catenin, cJun, phosphoH3 (S10), and a temporary increase in c-Myc; also recorded: induced changes in downstream signaling
competition with compound 2c for Pin1 (FIG. 6B legend) ([3]; HEK 293 cell lysate as printed in legend): competes with compound 2c for binding of Pin1
lysate target engagement by competition with 1 μM compound 2c (FIG. 6B) ([3]; TNBC-MDA-MB-231 cell lysate, pre-incubation overnight at 4° C.): potently engaged Pin1
Lysate Target Engagement? [3]: Yes-
Lysate Target Engagement? concentration stated for the engagement or pull down [3]: 500 µM
pKi ([8]; read-out: Ki quoted in figure legend, assay not named): 7.70
pKi ([8]; text and figure legend, read-out: Ki (fluorescence polarization, FIG. 1B)): 7.70
